Measurements: patent publication US6274715A, “Tricyclic erythromycin derivatives” (priority 1997, dated 2001)
Converted amounts (≈) assume the structure as drawn.

Assays:
Assay type in all cases: cell-based
[1] = system: H. Influenza Dill AMP R; experiment: In vitro antibacterial activity against H. Influenza Dill AMP R, MIC; conditions: separate assay, unit assumed
Description: Representative compounds of the present invention were assayed in vitro for antibacterial activity as follows: Twelve petri dishes containing successive aqueous dilutions of the test compound mixed with 10 mL of sterilized Brain Heart Infusion (BHI) agar (Difco 0418-01-5) were prepared. Each plate was inoculated with 1:100 (or 1:10 for slow-growing strains, such as Micrococcus and Streptococcus) dilutions of up to 32 different microorganisms, using a Steers replicator block. The inoculated plates were incubated at 35-37° C. for 20 to 24 hours. In addition, a control plate, using BHI agar containing no test compound, was prepared and incubated at the beginning and end of each test.
After incubation, each plate was visually inspected. The minimum inhibitory concentration (MIC) was defmed as the lowest concentration of drug yielding no growth, a slight haze, or sparsely isolated colonies on the inoculum spot as compared to the growth control.
In a separate assay representative compounds of the invention were assayed in vitro for antibacterial activity against the H. Influenza Dill AMP R strain, according to the protocol described above.

[2] = system: PSEUDOMONAS AERUGINOSA DPHD-2862; experiment: In vitro antibacterial activity, MIC, BHI agar dilution; conditions: P. aeruginosa DPHD-2862, unit assumed
[3] = system: CANDIDA ALBICANS CCH 442; experiment: as above; conditions: C. albicans CCH 442, unit assumed
[4] = system: PROVIDENCIA STUARTII CMX 640; conditions: P. stuartii CMX 640; BHI agar; unit assumed
[5] = system: ESCHERICHIA COLI H560; experiment: In vitro antibacterial activity, MIC, BHI agar dilution; conditions: E. coli H560, unit assumed
[6] = system: STAPHYLOCOCCUS AUREUS 1775; experiment: as above; conditions: S. aureus 1775, unit assumed
[7] = system: STREPTOCOCCUS PYOGENES PIU 2548; experiment: as above; conditions: S. pyogenes PIU 2548, unit assumed
[8] = system: STAPHYLOCOCCUS AUREUS A-5278; experiment: as above; conditions: S. aureus A-5278, unit assumed
[9] = system: ESCHERICHIA COLI KNK 437; conditions: E. coli KNK 437; BHI agar; unit assumed
[10] = system: PSEUDOMONAS AERUGINOSA 5007; experiment: In vitro antibacterial activity, MIC, BHI agar dilution; conditions: P. aeruginosa 5007, unit assumed
[11] = system: STAPHYLOCOCCUS AUREUS NCTC10649M; experiment: as above; conditions: S. aureus NCTC10649M, unit assumed
[12] = system: ENTEROBACTER AEROGENES ATCC 13048; experiment: as above; conditions: E. aerogenes ATCC 13048, unit assumed
[13] = system: MYCOBACTERIUM SMEGMATIS ATCC 114; experiment: as above; conditions: M. smegmatis ATCC 114, unit assumed
[14] = system: ESCHERICHIA COLI DC-2; experiment: as above; conditions: E. coli DC-2, unit assumed
[15] = system: KLEBSIELLA PNEUMONIAE ATCC 8045; experiment: as above; conditions: K. pneumoniae ATCC 8045, unit assumed
[16] = system: PSEUDOMONAS AERUGINOSA BMH10; experiment: as above; conditions: P. aeruginosa BMH10, unit assumed
[17] = system: STAPHYLOCOCCUS AUREUS ATCC 6538P; experiment: as above; conditions: S. aureus ATCC 6538P, 35-37° C., 20 to 24 hours, unit assumed
[18] = system: PSEUDOMONAS AERUGINOSA K799/61; experiment: as above; conditions: P. aeruginosa K799/61, unit assumed
[19] = system: PSEUDOMONAS AERUGINOSA DPHD-5263; experiment: as above; conditions: P. aeruginosa DPHD-5263, unit assumed
[20] = system: ESCHERICHIA COLI SS; experiment: as above; conditions: E. coli SS, unit assumed
[21] = system: STAPHYLOCOCCUS AUREUS CMX 642A; experiment: as above; conditions: S. aureus CMX 642A, unit assumed
[22] = system: M[…] ATCC 9341; experiment: as above; conditions: M. luteus ATCC 9341, unit assumed
Method in brief: (§1)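 BHI agar dilution: twelve plates with successive compound dilutions, inoculated by replicator with 1:100 culture dilutions (1:10 for slow growers such as Micrococcus and Streptococcus), 20 to 24 hours at 35-37° C. MIC was the lowest concentration giving no growth, slight haze or sparse isolated colonies versus drug-free control; erythromycin A as class reference.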

[23] = system: STR[…] 508; experiment: as above; conditions: S. agalactiae CMX 508, unit assumed
Method in brief: as §1

[24] = system: EN[…] ATCC 8043; experiment: as above; conditions: E. faecium ATCC 8043, unit assumed
Method in brief: as §1

[25] = system: M[…] ATCC 4698; experiment: as above; conditions: M. luteus ATCC 4698, unit assumed
Method in brief: as §1

[26] = system: PSEUDOMONAS CEPACIA 296I; experiment: as above; conditions: P. cepacia 296I, unit assumed
[27] = system: ESCHERICHIA COLI JUHL; conditions: E. coli JUHL; BHI agar; unit assumed
[28] = system: STREPTOCOCCUS PYOGENES 930; experiment: In vitro antibacterial activity, MIC, BHI agar dilution; conditions: S. pyogenes 930, unit assumed
[29] = system: STAPHYLOCOCCUS AUREUS CMX 553; experiment: as above; conditions: S. aureus CMX 553, unit assumed
[30] = system: STREPTOCOCCUS BOVIS A-5169; experiment: as above; conditions: S. bovis A-5169, unit assumed
[31] = system: STREPTOCOCCUS PYOGENES EES61; experiment: as above; conditions: S. pyogenes EES61, unit assumed
[32] = system: PSEUDOMONAS AERUGINOSA K799/WT; experiment: as above; conditions: P. aeruginosa K799/WT, unit assumed
[33] = system: STAPHYLOCOCCUS EPIDERMIDIS 3519; conditions: S. epidermidis 3519; BHI agar; unit assumed
[34] = system: ACINETOBACTER CALCOACETICUS CMX 669; experiment: In vitro antibacterial activity, MIC, BHI agar dilution; conditions: A. calcoaceticus CMX 669, unit assumed
[35] = system: STAPHYLOCOCCUS AUREUS A5177; experiment: as above; conditions: S. aureus A5177, unit assumed

SMILES: CCC1OC(=O)C(C)C(=O)C(C)C(OC2OC(C)CC(N(C)C)C2O)C(C)(OC)CC(C)C2=NC(c3ccccc3)C(c3ccccc3)N3C(=O)OC1(C)C3C2C (stereo not shown) [Example 7]
- MIC [1]: 64 µg/mL (≈ 81 µM)
- MIC [2]: > 100 µg/mL
- MIC [3]: > 100 µg/mL
- MIC [4]: > 100 µg/mL
- MIC [5]: > 100 µg/mL
- MIC [6]: 100 µg/mL (≈ 127 µM)
- MIC [7]: 1.56 µg/mL (≈ 1.97 µM)
- MIC [8]: 100 µg/mL (≈ 127 µM)
- MIC [9]: > 100 µg/mL
- MIC [10]: > 100 µg/mL
- MIC [11]: 3.1 µg/mL (≈ 3.92 µM)
- MIC [12]: > 100 µg/mL
- MIC [13]: 1.56 µg/mL (≈ 1.97 µM)
- MIC [14]: > 100 µg/mL
- MIC [15]: > 100 µg/mL
- MIC [16]: > 100 µg/mL
- MIC [17]: 3.1 µg/mL (≈ 3.92 µM)
- MIC [18]: 6.2 µg/mL (≈ 7.85 µM)
- MIC [19]: > 100 µg/mL
- MIC [20]: 3.1 µg/mL (≈ 3.92 µM)
- MIC [21]: 3.1 µg/mL (≈ 3.92 µM)
- MIC [22]: 0.39 µg/mL (≈ 0.494 µM)
- MIC [23]: 0.2 µg/mL (≈ 0.253 µM)
- MIC [24]: 0.39 µg/mL (≈ 0.494 µM)
- MIC [25]: 1.56 µg/mL (≈ 1.97 µM)
- MIC [26]: > 100 µg/mL
- MIC [27]: > 100 µg/mL
- MIC [28]: 50 µg/mL (≈ 63.3 µM)
- MIC [29]: 3.1 µg/mL (≈ 3.92 µM)
- MIC [30]: 0.2 µg/mL (≈ 0.253 µM)
- MIC [31]: 0.2 µg/mL (≈ 0.253 µM)
- MIC [32]: > 100 µg/mL
- MIC [33]: 1.56 µg/mL (≈ 1.97 µM)

SMILES: CC[C@H]1OC(=O)[C@H](C)C(=O)[C@H](C)[C@@H](O[C@@H]2O[C@H](C)C[C@H](N(C)C)[C@H]2O)[C@](C)(OC)C[C@@H](C)C2=N[C@H](COCc3ccc(F)cc3)CN3C(=O)O[C@@]1(C)[C@H]3[C@H]2C [Example 101]
- MIC [2]: > 100 µg/mL
- MIC [3]: > 100 µg/mL
- MIC [4]: > 100 µg/mL
- MIC [5]: 100 µg/mL (≈ 129 µM)
- MIC [6]: > 100 µg/mL
- MIC [7]: 0.05 µg/mL (≈ 0.0644 µM)
- MIC [8]: > 100 µg/mL
- MIC [9]: > 100 µg/mL
- MIC [10]: > 100 µg/mL
- MIC [11]: 0.05 µg/mL (≈ 0.0644 µM)
- MIC [12]: > 100 µg/mL
- MIC [13]: 0.39 µg/mL (≈ 0.503 µM)
- MIC [34]: 100 µg/mL (≈ 129 µM)
- MIC [14]: > 100 µg/mL
- MIC [15]: > 100 µg/mL
- MIC [16]: > 100 µg/mL
- MIC [17]: 0.05 µg/mL (≈ 0.0644 µM)
- MIC [35]: 0.05 µg/mL (≈ 0.0644 µM)
- MIC [18]: 1.56 µg/mL (≈ 2.01 µM)
- MIC [19]: > 100 µg/mL
- MIC [20]: 0.2 µg/mL (≈ 0.258 µM)
- MIC [21]: 0.1 µg/mL (≈ 0.129 µM)
- MIC [22]: ≤ 0.005 µg/mL
- MIC [23]: ≤ 0.005 µg/mL
- MIC [24]: ≤ 0.005 µg/mL
- MIC [25]: 0.02 µg/mL (≈ 0.0258 µM)
- MIC [26]: 100 µg/mL (≈ 129 µM)
- MIC [27]: > 100 µg/mL
- MIC [28]: > 100 µg/mL
- MIC [29]: 0.05 µg/mL (≈ 0.0644 µM)
- MIC [30]: ≤ 0.005 µg/mL
- MIC [31]: ≤ 0.005 µg/mL
- MIC [32]: > 100 µg/mL
- MIC [33]: 0.1 µg/mL (≈ 0.129 µM)
